# Values quoted from earlier work as cited in US20160075995A1, “SWEAT GLAND-DERIVED STEM CELLS AND METHODS OF USE” (priority 2014, published 2016).
# Key:
# [1] = published reports
# [2] = DMSO
compound,measurement,setting,value
c1cc(-c2cnn3cc(-c4ccc(OCCN5CCCCC5)cc4)cnc23)ccn1 [dorsomorphin],toxicity,[1],low toxicity
same,solubility,[2],soluble in DMSO
